Read-outs that look alike come from different tables or passages of the source.
Legend:
human TRPV3 = molecular target: T1, human TRPV3 (Homo sapiens, UniProt Q8NET8); test: In vitro antagonism of recombinant human TRPV3 activation (FLIPR Tetra calcium assay); assay type: cell-based; details: HEK293 cells stably expressing human TRPV3, agonist 2-APB at 80 μM
T1 construct: expressed in transfected cells
T1 sequence (Q8NET8 1-790): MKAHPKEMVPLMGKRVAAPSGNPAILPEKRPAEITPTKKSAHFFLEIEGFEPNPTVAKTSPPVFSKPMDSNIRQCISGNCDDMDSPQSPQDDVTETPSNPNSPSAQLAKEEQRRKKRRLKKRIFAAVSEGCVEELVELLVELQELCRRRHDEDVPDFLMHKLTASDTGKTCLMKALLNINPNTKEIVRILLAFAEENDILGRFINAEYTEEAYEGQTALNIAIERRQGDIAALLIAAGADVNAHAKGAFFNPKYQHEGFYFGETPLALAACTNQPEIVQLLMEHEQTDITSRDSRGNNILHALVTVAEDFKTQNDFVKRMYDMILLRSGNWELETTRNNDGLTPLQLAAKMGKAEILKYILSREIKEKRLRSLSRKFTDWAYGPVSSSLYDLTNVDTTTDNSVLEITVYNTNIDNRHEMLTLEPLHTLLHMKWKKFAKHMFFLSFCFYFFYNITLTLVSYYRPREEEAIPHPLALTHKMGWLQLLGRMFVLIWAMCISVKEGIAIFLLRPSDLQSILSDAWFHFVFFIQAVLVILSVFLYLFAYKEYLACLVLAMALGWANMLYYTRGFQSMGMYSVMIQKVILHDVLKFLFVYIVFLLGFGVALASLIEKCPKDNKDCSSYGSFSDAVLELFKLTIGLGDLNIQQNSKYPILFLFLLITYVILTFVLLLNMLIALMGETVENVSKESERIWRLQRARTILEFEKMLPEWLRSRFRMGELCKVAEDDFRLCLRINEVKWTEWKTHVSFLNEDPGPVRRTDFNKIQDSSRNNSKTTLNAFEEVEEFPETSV
Method in brief: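 Calcium flux read over a 10 min run: compound added at 10 s to Calcium-4-loaded human TRPV3-HEK293 cells, agonist 2-APB (80 μM, its EC80) after 3 min. IC50 derived from peak-minus-baseline signal as percentage of uninhibited 2-APB response, typically averaged over at least two runs.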

[1] = In vitro human microsomal stability assay; assay type: in vitro ADME; details: human, microsomes, 0.5 h, 0.5 μM, pH 7.4
Method in brief: (§1)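 Compound incubated at 37 °C with NADPH-supplemented liver microsomes, either human or from Sprague-Dawley rat, to assess metabolic stability.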

[2] = In vitro rat microsomal stability assay; assay type: in vitro ADME, rat (Sprague-Dawley); details: Sprague-Dawley, rat, microsomes, 0.5 h, 0.5 μM, pH 7.4
Method in brief: as §1

[3] = actual measured value shown parenthetically, in most cases average of at least two runs, read-out: IC50
[4] = reported range, read-out: IC50 (range class)

IC50 (human TRPV3; [3]) [µM]	HUMAN MICROSOMAL STABILITY (% REMAINING AFTER 30 MINUTES) [1] [%]	RAT MICROSOMAL STABILITY (% REMAINING AFTER 30 MINUTES) [2] [%]	IC50 (human TRPV3; [4]) [µM]	Structure (SMILES)
2.41	64	10	–	CN(C)N=C1CC(c2ccc(OC(F)(F)F)cc2)([C@H](O)c2ccccn2)C1 (stereo partly drawn) [Example 267, (S)-{3-(dimethylhydrazinylidene)-1-[4-(trifluoromethoxy)phenyl]-cyclobutyl}(pyridin-2-yl)methanol]
2.19	62	8.6	–	OC(c1ccccn1)C1(c2nc3ccccc3o2)CCC1 (stereo not shown) [Example 271, [1-(1,3-benzoxazol-2-yl)cyclobutyl](pyridin-2-yl)methanol]
3.11	55	10	–	OC(c1ccccn1)C1(C2CCC(F)(F)CC2)CCC1 (stereo not shown) [Example 274, [1-(4,4-difluorocyclohexyl)cyclobutyl](pyridin-2-yl)methanol]
19	67	5.7	–	Cn1c(C2(C(O)c3ccccn3)CCC2)nc2ccccc21 (stereo not shown) [Example 275, [1-(1-methyl-1H-benzimidazol-2-yl)cyclobutyl](pyridin-2-yl)methanol]
0.2	72	73	–	OC1CC(c2ccc(F)c(Cl)c2)([C@H](O)c2ccccn2)C1 (stereo partly drawn) [Example 276, 3-(3-chloro-4-fluorophenyl)-3-[(S)-hydroxy(pyridin-2-yl)methyl]-cyclobutanol]
1.97	>85	>85	–	O=C1CC(c2cc(C(F)(F)F)ccn2)([C@H](O)c2ccccn2)C1 [Example 277, 3-[(S)-hydroxy(pyridin-2-yl)methyl]-3-[4-(trifluoromethyl)pyridin-2-yl]-cyclobutanone]
6.6	83	>85	–	O=C1CC(c2cc(C(F)(F)F)ccn2)([C@@H](O)c2ccccn2)C1 [Example 278, 3-[(R)-hydroxy(pyridin-2-yl)methyl]-3-[4-(trifluoromethyl)pyridin-2-yl]-cyclobutanone]
7.5	22	<0.01	–	CC(C)(C)OC(=O)N1CCC(C2(C(O)c3ccccn3)CCC2)CC1 (stereo not shown) [Example 279, tert-butyl 4-{1-[hydroxy(pyridin-2-yl)methyl]cyclobutyl}piperidine-1-carboxylate]
1.95	9.0	<0.01	–	OC(c1ccccn1)C1(C2CCC(C(F)(F)F)CC2)CCC1 (stereo not shown) [Example 280, pyridin-2-yl{1-[4-(trifluoromethyl)cyclohexyl]cyclobutyl}methanol]
7.69	>85	0.054	–	OC(c1ccccn1)C1(C2CCCOC2)CCC1 (stereo not shown) [Example 281, pyridin-2-yl[1-(tetrahydro-2H-pyran-3-yl)cyclobutyl]methanol]
0.74	>85	>85	–	OC1CC(c2cc(C(F)(F)F)ccn2)(C(O)c2ccccn2)C1 [Example 282, cis-3-[(S)-hydroxy(pyridin-2-yl)methyl]-3-[4-(trifluoromethyl)pyridin-2-yl]cyclobutanol]
> 20	>85	16	> 20	OC(c1ccccn1)C1(C2CCOC2)CCC1 (stereo not shown) [Example 284, pyridin-2-yl[1-(tetrahydrofuran-3-yl)cyclobutyl]methanol]
1.47	>85	70	–	CC1(O)CC(c2cc(C(F)(F)F)ccn2)(C(O)c2ccccn2)C1 (stereo not shown) [Example 286]
> 20	15	<0.01	> 20	COc1ccc(C(O)C2(c3ccc(Cl)c(Cl)c3)CCC2)nc1 (stereo not shown) [Example 287, [1-(3,4-dichlorophenyl)cyclobutyl](5-methoxypyridin-2-yl)methanol]
14.6	<0.01	<0.01	–	CC(=O)O[C@H](c1ccccn1)C1(c2ccc(OC(F)(F)F)cc2)CCC1 [Example 288, (S)-pyridin-2-yl{1-[4-(trifluoromethoxy)phenyl]cyclobutyl}methyl acetate]
> 20	4.2	<0.01	> 20	COc1ccnc(C(O)C2(c3ccc(Cl)c(Cl)c3)CCC2)c1 (stereo not shown) [Example 289, [1-(3,4-dichlorophenyl)cyclobutyl](4-methoxypyridin-2-yl)methanol]
17.3	>85	53	–	Cc1cc(C(F)(F)F)cc(C2([C@@H](O)c3ccccn3)CC(=O)C2)n1 [Example 291, 3-[(R)-hydroxy(pyridin-2-yl)methyl]-3-[6-methyl-4-(trifluoromethyl)-pyridin-2-yl]cyclobutanone]
0.56	19	5.4	–	OC(c1ccccn1)C1(c2nc3ccc(Cl)cc3s2)CCC1 (stereo not shown) [Example 292, [1-(6-chloro-1,3-benzothiazol-2-yl)cyclobutyl](pyridin-2-yl)methanol]
> 20	78	69	> 20	O=C1CC(c2cc(C(F)(F)F)ccn2)(C(O)c2ccccn2)C1 (stereo not shown) [Example 293, 3-[hydroxy(pyridin-2-yl)methyl]-3-[4-(trifluoromethyl)pyridin-2-yl]-cyclobutanone]
> 20	>85	>85	> 20	OC1CC(c2cc(C(F)(F)F)ccn2)([C@H](O)c2ccccn2)C1 (stereo partly drawn) [Example 294, 3-[(S)-hydroxy(pyridin-2-yl)methyl]-3-[4-(trifluoromethyl)pyridin-2-yl]-cyclobutanol]
> 20	70	8.2	> 20	O=C1CC(c2cncc(C(F)(F)F)c2)(C(O)c2ccccn2)C1 (stereo not shown) [Example 295, 3-[hydroxy(pyridin-2-yl)methyl]-3-[5-(trifluoromethyl)pyridin-3-yl]-cyclobutanone]
> 20	67	12	> 20	O=C1CC(c2cncc(C(F)(F)F)c2)([C@H](O)c2ccccn2)C1 [Example 296, 3-[(S)-hydroxy(pyridin-2-yl)methyl]-3-[5-(trifluoromethyl)pyridin-3-yl]-cyclobutanone]
> 20	>85	2.0	> 20	OC(c1ccccn1)C1(c2ccnc(C(F)(F)F)c2)CC2(C1)OCCO2 (stereo not shown) [Example 297, pyridin-2-yl{2-[2-(trifluoromethyl)pyridin-4-yl]-5,8-dioxaspiro[3.4]oct-2-yl}methanol]
> 20	80	59	> 20	O=C1CC(c2ccnc(C(F)(F)F)c2)(C(O)c2ccccn2)C1 (stereo not shown) [Example 298, 3-[hydroxy(pyridin-2-yl)methyl]-3-[2-(trifluoromethyl)pyridin-4-yl]-cyclobutanone]
> 20	>85	>85	> 20	O=C1CC(c2ccnc(C(F)(F)F)c2)([C@H](O)c2ccccn2)C1 [Example 299, 3-[(S)-hydroxy(pyridin-2-yl)methyl]-3-[2-(trifluoromethyl)pyridin-4-yl]-cyclobutanone]

Source: patent publication US8772499B2, “TRPV3 modulators” (AbbVie Inc., priority 2011, dated 2014)
